Measured values: patent US4916122A, “3'-Azido-2',3'-dideoxyuridine anti-retroviral composition” (University of Georgia Research Foundation, Inc., priority 1987, dated 1990)

Columns and labels:
[1] = tested on: two particular enzymes isolated from L1210 cells; conditions: Lin et al.; cited from earlier work
sarcoma 180 cells = conditions: in vitro; Lin et al.; cited from earlier work
L1210 cells = conditions: in vitro; Lin et al.; Lin and Mancini; cited from earlier work
[2] = Effect on weight of uninfected BALB/c mice (FIG. 3); type: in vivo, mouse; conditions: compared with each other and control
HIV (LAV-1) = experiment: Median effective antiviral concentration against HIV (Table 5); type: cell-based; conditions: Human immunodeficiency virus 1
SIV (SMM) = experiment: Median effective antiviral concentration against SIV (Table 5); type: cell-based, simian immunodeficiency virus; conditions: Simian immunodeficiency virus
From the text: (§1) A comparison of the differences in median effective an tiviral concentrations between human, non-human primate, and murine retroviruses is shown in Table 5. […] A further comparison of the activity of several nucleoside analogues, including CS-87, against HIV-1 and SIV in human PBM cells is shown in FIG. 6. The effect of delayed treatment with AZT, CS-87 or CS-91 on the replication of HIV-1 and SIV in human PBM cells is shown in FIGS. 7a, b, and c.

HIV-1 and SIV = experiment: Effect of delayed treatment on replication of HIV-1 and SIV in human PBM cells (FIG. 7); type: cell-based, HIV-1; SIV
From the text: as §1

[3] = tested on: Mouse ecotropic (Cas-Br-M); experiment: Median effective antiviral concentration against mouse ecotropic virus (Table 5); type: cell-based, murine retrovirus; conditions: unidentified retrovirus
From the text: as §1

## Nc1ccn([C@H]2CC[C@@H](CO)O2)c(=O)n1 [DDC, reference compound]
[1]
  inhibitory activity towards two particular enzymes isolated from L1210 cells: only marginal inhibitory activity
Sarcoma 180 cells
  activity against sarcoma 180 cells: inactive
L1210 cells
  activity against L1210 cells: inactive

## CCc1cn([C@H]2C[C@H](N=[N+]=[N-])[C@@H](CO)O2)c(=O)[nH]c1=O [CS-85, 3'-azido-2',3'-dideoxy-5-ethyl-uridine, reference compound]
[2]
  effect on weight of uninfected BALB/c mice: no significant difference

## [N-]=[N+]=N[C@H]1C[C@H](n2ccc(N)nc2=O)O[C@@H]1CO [CS-91, 3' azido 2',3'-dideoxycytidine]
HIV (LAV-1)
  EC50: 0.39 µM
SIV (SMM)
  EC50: 1.16 µM
HIV-1 and SIV
  effect of delayed treatment on replication of HIV-1 and SIV: time of administration is critical to the effectiveness of the treatment
[3]
  EC50: 77.9 µM
